Laboratory results published in US20240400547A1, “2,6-PIPERIDINEDIONE COMPOUND AND APPLICATION THEREOF” (MEDSHINE DISCOVERY INC., priority 2021, published 2024).
Where a name gives a salt, the structure may show the parent alone.

How the values were obtained:
[1] = test system: human B-cell lymphoma OCI-LY10 cells; experiment: In vivo efficacy in SCID mouse xenograft model of human B-cell lymphoma OCI-LY10 cells; set-up: species or system SCID mice; details: for Tumor volume (Day 0): Day 0 (grouping, baseline); for Tumor volume (Day 0) / Tumor volume (Day 28): average, SEM in next grid line
Method: The study evaluates the antitumor effect of the test compounds using a SID mouse xenograft model of human B-cell lymphoma OCI-LY10 cells.
• 1. Experimental animals: SCID mice, female, 6 to 8 weeks old, weighing 17 to 20 g. Beijing Vital River Laboratory Animal Technology Co., Ltd. • 2. Cell line: The human B-cell lymphoma OCI-LY10 cell line was purchased from Nanjing Cobioer Biosciences Co. Ltd (Cat. No CBP60558).
OCI-LY10 cells were cultured in IMDM medium containing 20% FBS and maintained in a 37° C. incubator with 5% CO2 and saturated humidity. Log phase OCI-LY10 cells were collected, resuspended in IMDM basic medium, and mixed 1:1 with Matrigel. The cell concentration was adjusted to 4×10^7/mL. Under sterile conditions, 0.1 mL of the cell suspension was inoculated subcutaneously into the right flank of SCID mice, with an inoculation concentration of 4×10^6/0.1 mL/mouse.
For the pharmacological experiment, once the tumors reached a certain size, animals with tumors that were either too large, too small, or irregularly shaped were eliminated. Animals with tumor volumes between 167.65 and 231.29 mm^3 were selected. Based on tumor volume, the animals were divided into groups using a random grouping method, with each group consisting of six mice, and the average tumor volume was approximately 201.15 mm^3. The day of grouping was designated as Day 0, and dosing began according to the body weight of the animals. The pharmacological study period lasted for 28 days, with dosing once a day and a 24-hour interval between doses. Intragastric administration was used for administration. During the experiment, the body weight and tumor size of the animals were measured twice a week. Clinical symptoms were observed and recorded daily.
The test compounds were administered at doses of 10 mg/kg, 30 mg/kg, and 100 mg/kg, with a solvent composition of 10% DMSO/10% Solutol/80% H2O. The formula for calculating tumor volume (TV) was: 1/2×a×b^2, where a and b were the measured length and width of the tumor, respectively. The formula for calculating the Tumor Growth Inhibition (TGI) rate was: TGI (%)=[(1−(average tumor volume at the end of administration in a treatment group−average tumor volume at the beginning of administration in this treatment group))/(average tumor volume at the end of treatment in the vehicle control group−average tumor volume at the beginning of treatment in the vehicle control group)]×100%. Relative Tumor Proliferation rate T/C (%): the calculation formula was as follows: T/C %=TRTV/CRTV×100% (TRTV: average RTV of the treatment group; CRTV: average RTV of the negative control group). According to the results of tumor measurement, the relative tumor volume (RTV) was calculated, and the calculation formula was RTV=Vt/V0, where V0 was the tumor volume measured at the time of group administration (i.e. Day 0), VT was the tumor volume at a certain measurement, and TRTV and CRTV were taken from the same day's data.
In this study, experimental data were presented in Mean±SEM.
Statistical analysis was performed using IBM SPSS Statistics software based on the RTV data at the end of the experiment. For comparisons between two groups, a T test was used. For comparisons among three or more groups, one-way ANOVA was utilized. If the variance was homogenous (no significant difference in F value), Tukey's method was applied for analysis. If the variance was heterogeneous (significant difference in F value), the Games-Howell method was used for testing. A p-value of […] was considered statistically significant.

IKZF3 = target: T1, IKZF3 (Homo sapiens, UniProt Q96SW2+Q9UKT9); experiment: In Cell Western of IKZF3 protein expression level in MM.1S cells; assay type: cell-based; details: IKZF3, MM.1S cells, 24 hours
T1 construct: host or cells: MM.1S cells
Method: Experimental objective: The experiment aims to assess the degradation effect of the test compounds on IKZF1 and 1KZF3 proteins in MM.1S cells by evaluating the impact of the test compounds on the expression levels of IKZF1 and IZKZF3 proteins in MM.1S cells.
• Cell lines: MMN.1 S cell (sourced from ATCC; Cat. No CRL-2974) • Negative control: 0.100 DMSO.
• 1) Log phase MM.1 S cells were plated in a 96-well plate at 1.2×10^5 cells per well and cultured overnight; • 2) The next day, compounds were added with a starting concentration of 300 nM, diluted threefold across three replicate wells for 10 concentration gradients (including DMSO), and the cells were incubated for 24 hours in an incubator; • 3) The cells were centrifuged, and the supernatant was carefully removed. 150 μL of 4% paraformaldehyde fixative was added along the wall of the wells, avoiding contact with the bottom cells, and the cells were incubated at room temperature for 20 minutes; • 4) Lysis buffer was prepared by mixing 0.5 mL of 10% Triton X-100 with 49.5 mL of PBS until homogenous; • 5) 200 μL of lysis buffer was added along the well walls, again avoiding the bottom cells, and incubated on a shaker at room temperature for 5 minutes; • 6) The wells were washed four times; • 7) 150 μL of Licor […] […]

[2] = 10 mg/kg intragastric once a day
[3] = 30 mg/kg intragastric once a day
[4] = 100 mg/kg intragastric once a day

T1 sequence (Q9UKT9 whole entry): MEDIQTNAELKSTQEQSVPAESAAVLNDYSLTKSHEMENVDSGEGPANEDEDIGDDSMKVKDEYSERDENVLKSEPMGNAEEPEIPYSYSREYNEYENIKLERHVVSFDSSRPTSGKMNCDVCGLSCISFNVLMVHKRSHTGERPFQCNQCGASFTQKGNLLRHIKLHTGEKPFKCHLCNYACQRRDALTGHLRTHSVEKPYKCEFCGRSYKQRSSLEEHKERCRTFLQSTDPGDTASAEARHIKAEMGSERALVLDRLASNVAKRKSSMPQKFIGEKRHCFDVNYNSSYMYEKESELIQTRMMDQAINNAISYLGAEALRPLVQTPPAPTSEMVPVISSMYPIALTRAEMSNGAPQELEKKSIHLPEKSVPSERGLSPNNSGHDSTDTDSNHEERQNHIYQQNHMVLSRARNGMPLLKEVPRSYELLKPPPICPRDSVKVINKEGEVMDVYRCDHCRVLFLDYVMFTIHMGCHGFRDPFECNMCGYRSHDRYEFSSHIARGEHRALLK
T1 sequence (Q96SW2 whole entry): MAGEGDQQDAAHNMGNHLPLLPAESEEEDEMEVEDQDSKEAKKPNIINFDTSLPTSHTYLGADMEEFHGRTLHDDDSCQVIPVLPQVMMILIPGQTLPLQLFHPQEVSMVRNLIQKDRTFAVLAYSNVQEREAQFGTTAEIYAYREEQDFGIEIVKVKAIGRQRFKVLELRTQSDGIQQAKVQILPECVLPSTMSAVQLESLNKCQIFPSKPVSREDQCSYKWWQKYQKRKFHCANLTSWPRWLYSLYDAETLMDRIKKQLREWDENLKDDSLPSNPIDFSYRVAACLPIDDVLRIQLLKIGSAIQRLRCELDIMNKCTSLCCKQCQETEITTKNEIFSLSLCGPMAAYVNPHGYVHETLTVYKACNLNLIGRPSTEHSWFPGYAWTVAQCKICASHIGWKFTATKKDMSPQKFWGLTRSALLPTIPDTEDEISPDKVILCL
T1 sequence (Q16531 whole entry partner): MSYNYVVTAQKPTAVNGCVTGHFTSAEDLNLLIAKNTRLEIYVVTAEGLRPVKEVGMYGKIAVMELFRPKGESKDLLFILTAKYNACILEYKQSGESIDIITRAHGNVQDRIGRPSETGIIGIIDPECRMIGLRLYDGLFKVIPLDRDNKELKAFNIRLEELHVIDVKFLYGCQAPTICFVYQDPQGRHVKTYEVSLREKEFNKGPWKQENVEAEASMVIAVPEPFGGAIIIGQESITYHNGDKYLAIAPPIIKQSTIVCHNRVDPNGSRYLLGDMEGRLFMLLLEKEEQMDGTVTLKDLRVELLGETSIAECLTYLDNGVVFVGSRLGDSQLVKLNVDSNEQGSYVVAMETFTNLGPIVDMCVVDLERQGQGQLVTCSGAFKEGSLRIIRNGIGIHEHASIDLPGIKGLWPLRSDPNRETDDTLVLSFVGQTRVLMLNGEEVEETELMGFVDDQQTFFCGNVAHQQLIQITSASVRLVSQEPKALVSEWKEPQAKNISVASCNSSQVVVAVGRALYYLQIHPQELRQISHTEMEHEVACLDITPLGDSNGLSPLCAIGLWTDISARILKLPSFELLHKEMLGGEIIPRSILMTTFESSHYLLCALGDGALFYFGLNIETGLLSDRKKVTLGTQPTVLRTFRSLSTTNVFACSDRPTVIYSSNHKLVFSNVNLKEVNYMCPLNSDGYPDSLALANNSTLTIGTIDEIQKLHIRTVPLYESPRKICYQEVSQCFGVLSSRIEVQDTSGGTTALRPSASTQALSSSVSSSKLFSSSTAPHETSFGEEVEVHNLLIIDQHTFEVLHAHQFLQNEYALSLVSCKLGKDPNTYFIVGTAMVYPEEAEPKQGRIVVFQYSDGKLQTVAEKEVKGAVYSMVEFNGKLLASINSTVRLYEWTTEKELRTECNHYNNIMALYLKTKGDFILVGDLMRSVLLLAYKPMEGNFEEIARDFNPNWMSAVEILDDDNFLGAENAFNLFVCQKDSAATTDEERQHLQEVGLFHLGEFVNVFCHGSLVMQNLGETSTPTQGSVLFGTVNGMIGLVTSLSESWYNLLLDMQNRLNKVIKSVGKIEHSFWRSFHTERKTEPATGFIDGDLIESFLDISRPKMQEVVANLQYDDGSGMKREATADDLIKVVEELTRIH

| DC50 (IKZF3) | Dmax (IKZF3; MM1.S, read-out: Maximum degradation rate Dmax) | Compound | Tumor volume (Day 0) [1, 2] | T/C (%) (Day 28) [1, 2] | TGI (%) (Day 28) [1, 2] | Tumor volume (Day 28) [1, 2] | Tumor volume (Day 0) [1, 3] | T/C (%) (Day 28) [1, 3] | TGI (%) (Day 28) [1, 3] | Tumor volume (Day 28) [1, 3] | Tumor volume (Day 0) [1, 4] | T/C (%) (Day 28) [1, 4] | TGI (%) (Day 28) [1, 4] | Tumor volume (Day 28) [1, 4] |
| --- | --- | --- | --- | --- | --- | --- | --- | --- | --- | --- | --- | --- | --- | --- |
| – | – | O=C1CCC(c2noc3ccc4c(NC(=O)CN5CCN(C[C@H]6CC[C@H](n7cc(NC(=O)c8coc(-c9ccnc(NCC%10CC%10)c9)n8)c(C(F)F)n7)CC6)CC5)cccc4c23)C(=O)N1 (some centres unmarked) [Hydrochloride of WX014] | 202.43 mm^3 | 47.40% | 60.43% | 685.61 mm^3 | 199.80 mm^3 | 23.07% | 89.94% | 322.68 mm^3 | 199.75 mm^3 | 12.80% | 100.96% | 188.01 mm^3 |
| 8.34 nM | 96.5% | O=C1CCC(c2noc3ccc4c(NC(=O)C(F)(F)C5CCN(CC6CCC(n7cc(NC(=O)c8coc(-c9ccnc(NCC%10CC%10)c9)n8)c(C(F)F)n7)CC6)CC5)cccc4c23)C(=O)N1 (centres unmarked) [Hydrochloride of WX018] | – | – | – | – | – | – | – | – | – | – | – | – |
